Results from patent publication US10285986B2, “Compounds and anti-tumor NQO1 substrates” (The Board of Trustees of the University of Illinois, priority 2011, dated 2019).
In brackets after ≈: the same amount, converted by molar mass. Several values for one entry are separate records, joined by “and”; a condition that tells them apart may be missing. Identical values can stand only once. Like-named read-outs stand apart in the source and are kept apart here.

Tests used:
MCF-7 cells = assay: Cytotoxicity to MCF-7 cells with or without 25 μM dicoumarol (sulforhodamine B assay); type: cell-based, human; settings: for IC50: Homo sapiens; for Fold Protection of MCF7 cells w/ 25 μM dicoumarol: Table 1
Description: The NQO1-dependent cytotoxicity of the first set of derivatives was determined in MCF-7 cells which express high levels of NQO1. Cells were exposed to DNQ for 2 hours in the presence or absence of 25 μM DIC. The media was then removed and cells were washed once with media then fresh media was added and the cells were incubated for 72 hours. Cell death was assessed using the sulforhodamine B assay previously described. […] Substitution off the nitrogen appeared well tolerated (4-14 and 4-15).
The DNQ derivatives synthesized were assayed for their toxicity to MCF-7 cells with or without DIC. The data from these experiments is organized in Table 4.2. […] This tolerance of sterically-demanding substituents corresponds with a flexible and promiscuous NQO1 active site. The poor activity of hydroxyl derivative 4-41 may be a result of either poor binding with the largely hydrophobic NQO1 active site or with an excessively strong substrate-enzyme interaction because of hydrogen bonding.

NQO1 = NQO1 (Homo sapiens, UniProt P15559); assay: NQO1 enzymatic measurements in vitro; type: biochemical; settings: 1 μM substrate
Sequence of NQO1 (P15559 whole entry): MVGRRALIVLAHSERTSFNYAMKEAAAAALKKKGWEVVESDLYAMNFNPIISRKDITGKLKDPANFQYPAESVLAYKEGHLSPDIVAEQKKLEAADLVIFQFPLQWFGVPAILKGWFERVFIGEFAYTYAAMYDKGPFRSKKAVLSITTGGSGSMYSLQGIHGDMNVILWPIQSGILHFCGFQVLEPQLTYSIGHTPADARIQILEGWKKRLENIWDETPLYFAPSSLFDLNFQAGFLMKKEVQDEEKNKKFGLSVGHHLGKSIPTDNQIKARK
Description: As further evidence that the activity of these DNQ derivatives is dependent on their ability to be reduced by NQO1, full enzymatic measurements in vitro were performed. We found a strong correlation between catalytic efficiency of substrates in vitro and their cell culture toxicity. […] This provides strong evidence that the cytotoxicity of DNQ and its derivatives are dependent primarily upon the activity of NQO1 within the cell.

[1] = Aqueous solubility in pH 7.4 PBS by LC-MS; type: physicochemical; settings: phosphate buffered saline, pH 7.4, aqueous buffer, thermodynamic from solid, PBS pH 7.4; Table 4.3
Description: The aqueous solubility of DNQ at pH 7.4 in phosphate buffered saline (PBS) was measured by LC-MS. DNQ was sonicated for 30 minutes in PBS then undissolved solid was removed by filtration through a 0.45 μm syringe filter and the filtrate was analyzed by LC-MS (λ=275 nm, ESI-TOF in negative mode). The optimal sonication time was determined by sonicating DNQ for 1, 5, 10, and 30 minutes. While the concentration of DNQ in solution increased substantially between 1, 5, and 10 minutes, there was only a minor difference between 10 and 30 minutes. During the 30 minute sonication the water bath warmed to 45° C. (samples were cooled to room temperature before filtration). A calibration curve was generated from 1-100 μM by dissolving DNQ in methanol to a concentration of 500 μM and making dilutions of this stock in 80:20 water:methanol. The calibration curve (measure by UV absorbance) was linear over this range; 1 μM was approximately the limit of detection. […] The solution was very pale yellow.
The aqueous solubility of the compounds was determined by an LC-MS assay as described in the specification above. We applied the calibration curve generated for DNQ to the derivatives under the assumption that the UV profile of the derivatives of DNQ would be similar to that of DNQ.
After sonication and filtration most of the aqueous solutions were colorless. The solutions of DNQ, 4-31, and 4-37 were faintly yellow while 4-8, 4-14 and 4-41 were substantially more colored. The solution of 4-8, 4-14 and 4-41 were diluted 10-fold with PBS prior to LC-MS analysis to ensure that the concentrations fell within the range of the calibration curve.

[2] = Solubility in 20% HPβCD solution (pH modulation protocol); type: physicochemical; settings: 20% HPβCD in pH 7.4 PBS, pH 7.4, aqueous with cosolvent or surfactant or cyclodextrin, thermodynamic from solid; 20% HPβCD; Table 4.3
Description: The protocol for formulating DNQ compounds in HPβCD is as follows: the DNQ compound is slurried in a 20% solution of HPβCD in pH 7.4 PBS and the pH is then increased by the addition of 10 M NaOH to induce dissolution of the DNQ compound. The pH is returned to pH 7.5-8.0 by the careful addition of 1 M HCl. A 3.3 mM solution of the DNQ compound can be made by this method which is stable at least 24 hours. This represents a 30-fold increase in solubility of DNQ over PBS alone.
Although we were pleased to find active derivatives of DNQ that were up to 4-fold more soluble in water—sufficiently soluble for continuous IV infusion for human administration—this level of solubility was insufficient for animal studies by bolus injection. […] We used the same pH modulation protocol outlined for DNQ described in the specification above. The results are organized in Table 4.3 and FIG. 8. While all compounds were more soluble in HPβCD than in buffer alone, the fold increase in solubility varied widely.

[3] = Solubility in organic solvents; type: physicochemical; settings: for solubility: organic solvent or mixture, thermodynamic from solid
Description: The solubility of DNQ derivatives in organic solvents was determined by measuring the amount of a given solvent required to dissolve a known amount of compound. Solvent was added to the compound in 50 μL aliquots and the slurry was sonicated. […] Solubility was assessed in DMSO, dichloromethane, and 33% methanol in dichloromethane (FIGS. 9, 10, and 11, respectively).

[4] = Maximum tolerated dose in mice; settings: mouse, ip
From the text: Because of the difficulty of repeated tail vein injections in mice, our group is using IP administration of compound.
All of these derivatives are currently being assessed for their maximum tolerated dose (MTD) in healthy mice. Compounds are formulated in HPβCD and delivered by IP injection to two mice once daily for five days.

[5] = Solubility in organic solvents; type: physicochemical; settings: organic solvent or mixture, thermodynamic from solid; THF; Table 1
PAR-PARP1 = assay: PARP1 hyperactivation (PAR-PARP1 formation) in vivo in orthotopic Lewis Lung Carcinoma model, immunoblotting; parameters: species or system NOD/SCID mice; settings: iv at or near MTD
Description: Antibodies that specifically detect poly(ADP-ribosyl)ated α-PAR (BD Pharmingen, San Jose, Calif.) proteins (e.g., the most abundant species, poly(ADP-ribosyl)ated PARP1, PAR-PARP1) and α-PARP1 (sc-8007, Santa Cruz Biotechnology) antibodies were used at 1:4000 and 1:2000 dilutions, respectively. α-Tubulin was monitored for loading.
To generate a known control to monitor the formation of poly(ADP-ribose)ylated-polymerase 1 (PAR-PARP1) in cells, LLC tumor cells were treated in vitro with hydrogen peroxide (H2O2, 0.5 μM) for 15 minutes, and whole cell protein lysates were separated by SDS-PAGE using the α-PAR (BD Pharmingen, San Jose, Calif.) antibody described above. PAR-PARP1 formation was then assessed by immunoblot analyses as previously described in Huang et al., Cancer Research, 2012.
LLC cells (1.0×10^6) were intravenously (iv) injected into the tail veins of female 18-20 gram NOD/SCID mice. Establishment of tumor nodules in the lungs of exposed mice were confirmed by bioluminescence and mice (5/group) were treated intravenously (via tail vein injection) with: (i) hydroxypropyl-beta-cyclodextrin (HPRCD) vehicle alone; (ii) DNQ (7.5 mg/kg); (ii) DNQ-87 (14 mg/kg); (iii) DNQ-107 (10 mg/kg); or (vi) DNQ 9-251 (20 mg/kg) dissolved in HPRCD. At specific times indicated (in mins) after injection of vehicle or drug, mice were euthanized, lungs removed and tumor nodules harvested. […] Extracts from cells treated with H2O2 were used as controls for monitoring PAR-PARP1 formation in LLC tumor cells.

[6] = MCF7, Table 1, read-out: MCF7 IC50
[7] = MCF7, classification in figure legends of FIGS. 7-11, read-out: IC50 ("active" / generally "inactive" compounds)
[8] = 2:1 CH2Cl2:MeOH, Table 4.3, read-out: Solubility in 2:1 CH2Cl2:MeOH
[9] = CH2Cl2:MeOH 2:1, Table 1, read-out: CH2Cl2:MeOH 2:1 solubility
[10] = CH2Cl2, Table 1, read-out: CH2Cl2 solubility
[11] = DMSO, Table 1, read-out: DMSO solubility
[12] = MCF7, 2 h, Table 4.1, 2 h exposure, no DIC, ± s.e., read-out: IC50 vs. MCF-7 cells
[13] = MCF7, read-out: IC50 vs. MCF-7 cells +25 μM DIC, Table 4.1, +25 μM DIC, ± s.e.

Row | SMILES | IC50 (MCF-7 cells; [6]) [nM] | IC50 (MCF-7 cells; [7]) [nM] | Fold Protection of MCF7 cells w/ 25 μM dicoumarol (MCF-7 cells) | NQO1 Initial Velocity @ 1 μM (NQO1) | solubility at 30 min [1] [µM] | solubility [2] [mM] | Solubility in CH2Cl2 ([3]; CH2Cl2, Table 4.3) [mM] | Solubility in DMSO ([3]; DMSO, Table 4.3) [mM] | solubility [3, 8] [mM] | solubility [3, 9] [mM] | solubility [3, 10] [mM] | solubility [3, 11] [mM] | MTD at 5 days ([4]; in vivo) | solubility [5] [mM] | IC50 (MCF-7 cells; [12]) [nM] | IC50 (MCF-7 cells; [13]) [nM] | Fold protection by DIC (MCF-7 cells; Table 4.1) | other results
1 | CCCCCCn1c2c(c(C)cc1=O)C(=O)c1c(C)cc(=O)[nH]c1C2=O [Compound 9-257] | 260 ± 40 | < 500 | 11 | 1850 ± 60 | < 5 | 6 (≈ 2130 µg/mL) | 32 (≈ 11300 µg/mL) | 18 (≈ 6380 µg/mL) | 140 (≈ 49600 µg/mL) | 140 (≈ 49600 µg/mL) | 32 (≈ 11300 µg/mL) | 18 (≈ 6380 µg/mL) | ≥ 16 mg/kg and ≥ 44 µmol/kg | 27 (≈ 9570 µg/mL) | – | – | – | IC50 (MCF-7 cells; MCF7, Table 4.2, no DIC, ± s.e., read-out: IC50 vs. MCF-7 cells): 290 ± 40 nM; IC50 (MCF-7 cells; MCF7, read-out: IC50 vs. MCF-7 cells +25 μM DIC, Table 4.2, +25 μM DIC, ± s.e.): 3000 ± 600 nM; Fold protection by DIC (MCF-7 cells; Table 4.2): 10
2 | CCCn1c2c(c(C)cc1=O)C(=O)c1c(C)cc(=O)[nH]c1C2=O [Compound 10-41] | 120 ± 10 | < 500 | 10 | 1590 ± 70 | 39 (≈ 12.2 µg/mL) | 6.3 (≈ 1970 µg/mL) | 3.9 (≈ 1220 µg/mL) | 8.9 (≈ 2780 µg/mL) | 32 (≈ 9990 µg/mL) | 32 (≈ 9990 µg/mL) | 3.9 (≈ 1220 µg/mL) | 8.9 (≈ 2780 µg/mL) | ≥ 14 mg/kg and ≥ 44 µmol/kg | 3.4 (≈ 1060 µg/mL) | 130 ± 10 | 1300 ± 400 | 10 | –
3 | CCc1cc(=O)n(C)c2c1C(=O)c1c(C)cc(=O)[nH]c1C2=O [Compound 107] | 280 | < 500 | 4.5 | 1400 ± 100 | 439 (≈ 131 µg/mL) | 4.4 (≈ 1310 µg/mL) | 5.5 (≈ 1640 µg/mL) | 31 (≈ 9250 µg/mL) | 37 (≈ 11000 µg/mL) | 37 (≈ 11000 µg/mL) | 5.5 (≈ 1640 µg/mL) | 31 (≈ 9250 µg/mL) | – | 4.7 (≈ 1400 µg/mL) | 280 ± 60 | 1300 ± 400 | 4.5 | MTD at 5 days [4]: ≤ 10 mg/kg and ≤ 35 µmol/kg; PAR-PARP1 formation in tumor tissue (PAR-PARP1): higher levels of PAR-PARP1 formation
4 | CCn1c2c(c(C)cc1=O)C(=O)c1c(C)cc(=O)[nH]c1C2=O [Compound 109] | 530 | < 500 | 4.5 | 1500 ± 100 | 319 (≈ 95.2 µg/mL) | 5.7 (≈ 1700 µg/mL) | 9.5 (≈ 2830 µg/mL) | 24 (≈ 7160 µg/mL) | 19 (≈ 5670 µg/mL) | 19 (≈ 5670 µg/mL) | 9.5 (≈ 2830 µg/mL) | 24 (≈ 7160 µg/mL) | 10 mg/kg and 35 µmol/kg | 18 (≈ 5370 µg/mL) | 200 ± 10 | 3400 ± 200 | 17 | –
